Source: patent US20240076667A1, “APPLICATION OF ANTISENSE OLIGONUCLEOTIDE TARGETING PBX1 PROMOTER REGION G-QUADRUPLEX IN PREPARATION OF MEDICINE FOR TREATING MELANOMA” (JILIN UNIVERSITY, priority 2022, published 2024)
Entries after “also recorded” stand apart in the source; their conditions may differ.

What was measured:
PBX1 promoter region = assay: BG4 chromatin immunoprecipitation (ChIP) followed by qRT-PCR in A375 cells; format: cell-based, human
Method: FIGS. 2A-2G are features formed by dG1 and rG1 in vitro and in cells. In (FIG. 2A), Left: CD spectra of WT and Mut dG1, and Right: CD spectra of WT and Mut rG1. CD is circular dichroism. In (FIG. 2B), Left: gel mobility assay of WT and Mut dG1, and Right: gel mobility assay of WT and Mut rG1. In (FIG. 2C), under specified conditions, fluorescence-on assay of NMM in absence of presence of dG1 or rG1, and their G/A mutant. In (FIG. 2D), the occupancy of BG4 in the PBX1 promoter region is measured in A375 cells by BG4 chromatin immunoprecipitation (ChIP), followed by qRT-PCR. In (FIG. 2E), RNA immunoprecipitation (RIP) detection is performed to show the association between BG4 and the PBX1 transcript in A375 cells, followed by qRT-PCR. In (FIG. 2F), the occupancy of BG4 in the PBX1 promoter region is measured, by the BG4 chip, in A375 cells treated with or without PDS and TMPyP4, followed by qRT-PCR. […] SEM represents the standard error of mean. *P< 0.05, **P< 0.01***P< 0.001.
In this embodiment, several methods are further employed to verify the formation of dG1 and rG1. First, circular dichroism (CD) is used to examine the molar ellipticity of dG1 and rG1 sequences (33 nt) and mutants thereof, and the mutants are designed to eliminate G4 formation. […] Both dG1 and rG1 are found to enhance the fluorescence of N N (FIG. 2C). […]

PBX1 rG1 = assay: EGFP reporter gene system, confocal fluorescence; format: cell-based; conditions: HEK293T cells; 2 μM PDS or 5 μM TMPyP4
Method: Construction of an EGFP reporter vector: the reporter vector (Inovogen Tech. Co., Beijing, China) with pLV-EGFP-N as the backbone gene encodes the rG1 site of the PBX1 5′UTR sequence. By using the Strata gene rapid change site-directed mutagenesis kit, point mutation is performed on the rG1 site.
Given that G4s in the promoter and transcript are involved in the regulation of transcription and translation related processes, it is speculated that dG1 in the PBX1 promoter may regulate the transcription of PBX1, and rG1 in 5′UTR of the PBX1 transcript may regulate the transcription of PBX1. In addition, the luciferase reporter assay is first performed. The dG1 promoter sequence (designated as dG1-wt) and mutated dG1 promoter sequence (designated as dG1-mut) of PBX1 are cloned into pGL3 luciferase reporter vector. […] In addition, this embodiment further constructs an enhanced green fluorescent protein (EGFP) reporter gene system, to study the effect of rG1 on translation. The rG1 transcript sequence (designated as rG1-wt) and mutant rG1 transcript sequence (designated as rG1-mut) of PBX1 are fused to 5′UTR of EGFP, and the reporter gene vector is transfected into HEK293T cells. By confocal fluorescence experiments, the EGFP fluorescence intensity of rG1-WT is less than that of rG1-MUT, and PDS or TMPyP4 decreases the fluorescence intensity of rG1-WT in HEK293T cells (FIG. 3B). […]

PBX1 = PBX1 mRNA and protein levels by qRT-PCR and western blot in A375 cells; format: cell-based, human; conditions: for mRNA level of PBX1: qRT-PCR; for protein level of PBX1: western blot, normalized to GAPDH
Method: RNA extraction and quantitative RT-PCR detection: total RNA is extracted from cultured cells by using TRIzol (Invitrogen, USA), then is converted into cDNA by SuperScript III First-Strand Synthesis SuperMix (Invitrogen, USA). qRT-PCR detection is performed by using SYBR Green®Mix (Invitrogen, USA) in ABI 7500 (Invitrogen, USA). A relative expression quantity of RNA is calculated by using a comparative CT method.
Immunoblotting: for protein analysis of a whole-cell lysate, cells are lysed with RIPA (CWBIO, Beijing, China) buffer solution. For tumors, liquid nitrogen is first used to pulverize tissues. Then, the lysate is generated on ice with the RIPA (CWBIO, Beijing, China) buffer solution for 20 minutes, and then centrifuged at 4° C., 13000 rpm for 15 minutes. Protein-containing supernatant is transferred to the fresh microcentrifuge tube, and stored at −20° C. (short-term storage) for subsequent use. The protein is quantified by using the BIO-RAD DC protein assay. The total proteins are electrophoresed on SDS-polyacrylamide gels. Then, the proteins are transferred to polyvinylidene difluoride (PVDF) membrane. After incubation with the primary antibody overnight on the shaker at 4° C., the membrane is washed 6 times (5 minutes each time) with TBS-T (Invitrogen, USA). Then, blots are incubated with horseradish peroxidase (IRP)-conjugated secondary antibodies for 60 minutes at RT on the plate shaker. The membrane is cleaned by TBS-T (6×5 minutes). Detection on immunoreactive bands is performed by using SuperSignalmWest Pico chemiluminescence substrate kit (Thermo Fisher Scientific, USA) and Western blotting detection system (BioRad, USA). GAPDH is used as the loading control for western blotting. The intensity levels of the bands are normalized to GAPDH.

A375 cells [1] = assay: Cell scratch assay (migration), A375; format: cell-based, human; conditions: PDS (2 μM), TMPyP4 (5 μM), 24 h
Method: Cell scratch assay: the cells are seeded in 12-well plate and grown for 24 hours to 80% confluency. The bare region is created by the tip across the diameter of the dish. After being treated with PDS (2 μM) and TMPyP4 (5 μM) for 24 h, the cells are washed with PBS and photographed under the microscope (Leica, Germany) to evaluate cell migration. Six micrographs are taken for each person.

A375 cells [2] = assay: In vitro cell invasion experiment (Transwell), A375; format: cell-based, human; conditions: Transwell with Matrigel, 24 hours
Method: In vitro cell invasion experiment: in the Transwell invasion experiment, Matrigel is used as an invasive supraluminal membrane barrier (Corning, USA). The lower transwell chamber is filled with 2.5% serum containing DMEM medium. The cells are suspended at an upper chamber. After incubation for 24 hours, the filter is removed, and cells on the membrane are fixed by using methanol. Cells stained with 0.5% crystal violet infiltrate the surrounding matrix. The dye is washed with water and the cells are examined under the microscope (Leica, Germany). Six micrographs are taken for each person.

SMILES	pull-down of the PBX1 promoter by BG4 (PBX1 promoter region)	EGFP fluorescence intensity of rG1-WT (PBX1 rG1)	mRNA level of PBX1 (PBX1)	protein level of PBX1 (PBX1)	migration (A375 cells [1])	invasion (A375 cells [2])
NCCOc1cc(C(=O)Nc2cc(OCCN)c3ccccc3n2)nc(C(=O)Nc2cc(OCCN)c3ccccc3n2)c1 [PDS, Pyridostatin]	enhance	decreases	inhibit; also recorded: remarkably reduces	inhibit; also recorded: remarkably reduces	inhibit	inhibit
C[n+]1ccc(-c2c3nc(c(-c4cc[n+](C)cc4)c4ccc([nH]4)c(-c4cc[n+](C)cc4)c4ccc([nH]4)c(-c4cc[n+](C)cc4)c4nc2C=C4)C=C3)cc1 [TMPyP4]	enhance	decreases	inhibit; also recorded: remarkably reduces	inhibit; also recorded: remarkably reduces	inhibit	inhibit
